Experimental data taken from publication PMC6702965, “Inhibition of Porcine Viruses by Different Cell-Targeted Antiviral Drugs” (Frontiers in Microbiology, 2019).
Where two headings read alike, the source gives them in different places.

Assays:
ASFV Ba71V [1] = test: microbe, parasite or virus in culture; assay type: cell-based, African swine fever virus; conditions: for IC50: African swine fever virus
ASFV isolate E70 = test: microbe, parasite or virus in culture; assay type: cell-based; conditions: African swine fever virus, COS, read-out: IC50 on virus yield
ASFV = test system: ASFV; parameters: species or system African swine fever virus
FMDV [2] = test system: FMDV; parameters: species or system foot and mouth disease virus
ASFV Ba71V [3] = assay type: cell-based, African swine fever virus
ASFV Ba71V [4] = assay type: cell-based, African swine fever virus; remark: listed apart in the source
MTT cell viability assay [5] = conditions: African green monkey, Vero cells
MTT cell viability assay [6] = conditions: African green monkey, COS cells
MTT cell viability assay [7] = conditions: hamster, BHK cells
MTT cell viability assay [8] = conditions: pig, IBRS-2 cells
FMDV C-S8 [9] = test: microbe, parasite or virus in culture; assay type: cell-based, foot and mouth disease virus
VSV = conditions: cited from earlier work
FMDV [10] = conditions: cited from earlier work
SVDV = conditions: ref Vazquez-Calvo et al., 2011; cited from earlier work
FMDV O-UK = test: microbe, parasite or virus in culture; assay type: cell-based, foot and mouth disease virus
VSV Indiana = test: microbe, parasite or virus in culture; assay type: cell-based, vesicular stomatitis virus
SVDV SP93 = test: microbe, parasite or virus in culture; assay type: cell-based, swine vesicular disease virus
FMDV C-S8 [11] = assay type: cell-based, foot and mouth disease virus
FMDV C-S8 [12] = assay type: cell-based, foot and mouth disease virus; remark: listed apart in the source
FMDV C-S8 [13] = assay type: cell-based, foot and mouth disease virus; remark: listed apart in the source
FMDV C-S8 [14] = test system: FMDV C-S8; parameters: species or system C57 mice; conditions: mouse, in vivo
[15] = C57, mouse, in vivo
FMDV C-S8 [16] = conditions: mouse, in vivo
ASFV Ba71V [17] = conditions: cited from earlier work
[18] = read-out: IC50 on ASFV production

C/C=C/C/C=C/CCC(=O)[C@H]1O[C@H]1C(N)=O [CRL, cerulenin]
IC50 (ASFV Ba71V [1]; [18]): 9 µM | IC50 (ASFV isolate E70): 3 µM | Direct virucidal effect (virotoxicity) (ASFV): no direct toxicity | Direct virucidal effect (virotoxicity) (FMDV [2]): no direct toxicity | Expression of early virus protein p32 (ASFV Ba71V [3]): very low expression | Expression of late ASFV proteins (p17, p12) (ASFV Ba71V [3]): No late ASFV proteins | Effect of time of addition on virus yield (ASFV Ba71V [4]): recovery of virus productivity was observed when CRL was added as early as 0 h after infection | CC50 at 24 h (MTT cell viability assay [5]): 45 µM | CC50 at 24 h (MTT cell viability assay [6]): 60 µM | CC50 at 24 h (MTT cell viability assay [7]): 60 µM | CC50 at 24 h (MTT cell viability assay [8]): 40 µM

O=C(O)c1cc(O)c(O)c(O)c1 [G, gallic acid]
Inhibition of FMDV growth (FMDV C-S8 [9]): Neither G nor PG inhibited FMDV growth

CCCC(CCC)C(=O)O [VPA, valproic acid]
IC50 (ASFV Ba71V [1]; [18]): 2500 to 3000 µM | IC50 (ASFV isolate E70): 2500 µM | Direct virucidal effect (virotoxicity) (ASFV): no direct toxicity | Direct virucidal effect (virotoxicity) (FMDV [2]): no direct toxicity | Expression of early virus protein p32 (ASFV Ba71V [3]): very low expression | Expression of late ASFV proteins (p17, p12) (ASFV Ba71V [3]): No late ASFV proteins | Effect of time of addition on virus yield (ASFV Ba71V [4]): gradual recovery of virus yields | Susceptibility of infection to the drug (VSV): susceptible | Susceptibility of infection to the drug (FMDV [10]): not affected | Susceptibility of infection to the drug (SVDV): not affected | CC50 at 24 h (MTT cell viability assay [5]): 50000 µM

CCCOC(=O)c1cc(O)c(O)c(O)c1 [PG, propyl gallate]
Inhibition of FMDV growth (FMDV C-S8 [9]): Neither G nor PG inhibited FMDV growth

CCCCCCCCCCCCOC(=O)c1cc(O)c(O)c(O)c1 [LG, lauryl gallate]
Virus yield reduction (ASFV Ba71V [1]): about 3 log.u. | IC50 (ASFV Ba71V [1]; COS, 24 h, read-out: IC50 on virus yield): 0.4 µM | IC50 (ASFV Ba71V [1]; Vero, 24 h, read-out: IC50 on virus yield): 1 µM | IC50 (ASFV isolate E70): 2 µM | Decrease in virus production (FMDV C-S8 [9]): at least 1 log.u. | Reduction of virus yield (FMDV C-S8 [9]): up to 2 log.u | IC50 (FMDV C-S8 [9]; Foot-and-mouth disease virus, BHK-21, read-out: IC50 on virus yield): 0.2 to 2.5 µM | Decrease in virus production (FMDV O-UK): at least 1 log.u. | IC50 (FMDV O-UK; Foot-and-mouth disease virus, read-out: IC50 on virus yield): 0.7 µM | Reduction of virus productivity (VSV Indiana): 2 log.u. | IC50 (VSV Indiana; Vesicular stomatitis virus, BHK-21, read-out: IC50 on virus yield): 0.9 µM | Reduction of virus productivity (SVDV SP93): 1 log.u. | IC50 (SVDV SP93; Enterovirus B, read-out: IC50 on virus yield): 1.7 µM | Direct virucidal effect (virotoxicity) (ASFV): no direct toxicity | Direct virucidal effect (virotoxicity) (FMDV [2]): no direct toxicity | Expression of structural (VP1) and non-structural (3C) FMDV proteins (FMDV C-S8 [11]): significantly reduced | Amount of intracellular FMDV RNA (FMDV C-S8 [12]): not affected | Extracellular virus (RNA) (FMDV C-S8 [12]): significantly reduced | Positive strand viral RNA synthesis (FMDV C-S8 [12]): transiently inhibited | Time of LG addition up to which virus productivity was blocked (FMDV C-S8 [13]): up to 7 h.p.i. | Viral RNA copies (VRC) in blood, spleen, lung, heart and thymus (FMDV C-S8 [14]): significant reduction | Non-toxic working concentrations [15]: up to 200 mg/kg | Body weight (FMDV C-S8 [16]): lower weights | Protection against FMDV challenge (FMDV C-S8 [16]): no protection | Survival rate (FMDV C-S8 [16]): 70% | Time of LG addition up to which virus production was inhibited (ASFV Ba71V [17]): up to 5 h.p.i. | CC50 at 24 h (MTT cell viability assay [5]): 45 µM | CC50 at 24 h (MTT cell viability assay [6]): 33 µM | CC50 at 24 h (MTT cell viability assay [7]): 75 µM | CC50 at 24 h (MTT cell viability assay [8]): 30 µM

CCCCCCCCOC(=O)c1cc(O)c(O)c(O)c1 [OG, octyl gallate]
Effect on ASFV infection (ASFV Ba71V [1]): inhibitory effect | Reduction of virus yields (FMDV C-S8 [9]): 2 log.u.
